According to patent publication US20080287384A1, “Methods of Identifying Agents Having Antiangiogenic Activity” (priority 2005, published 2008):

Assays:
[1] = system: HMVECs; assay: Endothelial cell migration assay (modified Boyden chamber); format: cell-based, human
Method: Endothelial Cell Migration Assay-The endothelial cell migration assay was performed as described in, […], Methods Mol Med. 78: 337-47 (2003), incorporated herein by reference. Briefly, HMVECs were starved overnight in media containing 0.1% bovine serum albumin (BSA), harvested, resuspended in DME with 0.1% BSA, plated on the bottom side of a modified Boyden chamber (Nucleopore Corporation, MD), and allowed to attach in the inverted chamber for 2 hours at 37° C. The chamber was then re-inverted, test substances added to the wells of the upper chamber and cells were allowed to migrate for four hours at 37° C. Membranes were recovered, fixed and stained and the number of cells that had migrated to the upper chamber per ten high power fields was counted. Background migration in DME+0.1% BSA was subtracted and the data reported as the number of cells migrated per 10 high power fields (400×). VEGF (R&D Systems, Minneapolis, Minn.) was used as a positive control at a concentration of 100 pg/ml.

[2] = system: CREB, a substrate of PKA; assay: Phospho-CREB western analysis; settings: HMVEC lysates; forskolin given with IBMX per FIG. 5B legend
From the text: Cell lysate extraction and western analysis—Cell lysates were collected, resolved by SDS-PAGE, and analyzed by western blot using anti-Phospho-CREB (Ser133) antibody or anti-tubulin antibody at a dilution of 1:1000 or anti-Rap1 at a dilution of 1:500, using standard methods as described in Kuo, W L et al., J. Biol. Chem. 279: 23073-81 (2004), incorporated herein by reference.

[3] = system: HMVECs; assay: Cell morphology / actin stress fiber staining; format: cell-based, human; settings: treated or lentivirus-transduced
[4] = system: endothelial cells; settings: 0.3 mM, low serum conditions, data not shown
[5] = system: Rap1; format: cell-based, human; settings: HMVECs
Method: Briefly, cells are lysed in a suitable lysis buffer and clarified by centrifugation. Clarified lysates are incubated with a GST fusion protein containing the Rap-1 binding domain of Ral-GDS coupled to glutathione-sepharose beads. Proteins bound to the beads are then extracted and resolved by sodium dodecyl sulfate-polyacrylamide gel electrophoresis (SDS-PAGE) and subjected to western blot analysis using anti-Rap-1 antibodies.
Rap1 pull down assay—HMVECs were grown to subconfluent in 100 mm plates, starved in EBM2 medium plus 0.1% BSA over night and treated as indicated.

[6] = system: mouse cornea
Method: The effect of 8CPT-2Me-cAMP treatment on FGF-induced angiogenesis was investigated using the mouse corneal assay. Mice were injected with either 0.6 or 6 μmoles of 8CPT-2Me-cAMP, concentrations similar to those used for the skin implant scaffolds.

[7] = system: age-related macular degeneration; settings: 1-2 drops of 0.1% w/v aqueous ophthalmic composition, each eye twice daily
From the text: A patient complaining of vision loss is diagnosed with age-related macular degeneration.

[8] = system: HMVECs in scaffolds implanted in SCID mice; assay: SCID mouse model of human angiogenesis, in vivo microvessel density; settings: daily local injection for 5 days
From the text: A further assay for evaluating inhibition of tubule formation suitable for use in the presently described methods is an in vivo assay of microvessel density. In this regard, functional human microvessels can be engineered in SCID mice by implanting human dermal microvascular endothelial cells (HMVECs) seeded in biodegradable scaffolds, as described by Nor J E, et al., Lab Invest 81: 453-63 (2001), incorporated herein by reference. These cells organize into microvessels that anastomose with the host vasculature and transport mouse blood cells. Differences in vessel density are quantified post-euthanization by standard immunohistochemical techniques using, for example, anti-human CD31, and counting the number of CD31-positive vessels in a set number of random fields.
SCID Mouse Model of Human Angiogenesis—Functional human microvessels were induced in severe combined immunodeficient (SCID) mice (CB-17 SCID; Taconic, Germantown, N.Y., USA). […]
Determination of In Vivo Microvessel Densities—Formalin fixed, paraffin-embedded implants were generated in order to quantify differences in vessel densities in the tumors of the treated and untreated animals. […] The number of CD31+blood vessels was counted in 10 random fields per sponge using an optical microscope (×400).

With O=C(Nc1ncnc2c1ncn2[C@@H]1O[C@@H]2COP(=O)(O)O[C@H]2[C@H]1O)c1ccccc1 [6-Benz-cAMP, N^6-Benzoyladenosine-3′,5′cyclic monophosphate] the “effect on VEGF-induced chemotaxis” value [1] was “no effect”.

For CO[C@@H]1[C@@H]2OP(=O)(O)OC[C@H]2O[C@H]1n1c(Sc2ccc(Cl)cc2)nc2c(N)ncnc21 [8CPT-2Me-cAMP, 8-(4-chlorophenylthio)-2′-O-methyladenosine-3′,5′cyclic monophosophate], the CREB phosphorylation [2] was “did not induce significant CREB phosphorylation”, the cell morphology [3] was “this effect could be mimicked” and the apoptotic induction [4] was “did not detect apoptotic induction”. For the same compound, the “Rap1 activation (GTP-bound Rap1)” value [5] was “robust stimulator”, the “average area of vascularization relative to control mice” value ([6]; 0.6 μmoles) was “about half” and the “mice with detectable vascularization” value ([6]; 0.6 μmoles, control 6 out of 6) was 6 out of 8. The FGF-induced angiogenesis ([6]; 6 μmoles (higher dose)) was “effectively suppressed”, the mice showing angiogenesis ([6]; 6 μmoles, control 6 out of 6) was 1 out of 10 and the “concentration giving complete inhibition of VEGF-stimulated migration” value [1] was 2.5 µM. For the same compound, the “migration in the absence of VEGF (nonspecific/background migration)” value ([1]; no VEGF) was “no suppression”, the ocular function [7] was “noticeable improvement” and the “inhibition of number of microvessels” value ([8]; 0.03 μmoles per implant) was “roughly 50%”. For the same compound, the “inhibition of number of microvessels” value ([8]; 0.3 μmoles per implant) was “greater than 90%”.

C[C@@H](N)[C@H]1CC[C@H](C(=O)Nc2ccncc2)CC1 [Y-27632] was tested, and the “effect on VEGF-induced chemotaxis” value [1] was “dose-dependent inhibition”.
